The text below walks through data of paper PMC9069370, “Integrated Design of a Membrane‐Lytic Peptide‐Based Intravenous Nanotherapeutic Suppresses Triple‐Negative Breast Cancer” (Advanced Science, 2022).

The test system of one assay is HMLER. The assay is described as follows: cells. It is filed as cell-based, human. Conditions: 72 h. An excerpt:
(§1) […], and MCF-10A cells were maintained in MEGM with supplements and growth factors bovine pituitary extract, hydrocortisone, human epidermal growth factor, insulin, and gentamicin/amphotericin-B.

Another assay relates to HMLER‐shEcad. The assay is described as follows: cells. It is filed as cell-based, human. The following applies: 72 h.
From the text: as §1

The next assay has as its system MCF‐10A. In words: cells. Format: cell-based, human. Conditions: 72 h.
From the text: as §1

The next assay deals with U2OS. Format: cell-based, human. The following applies: 72 h.
The subject of a further assay is HEK293T. In words: cells. Format: cell-based, human. Conditions: 72 h.
A short description of assay [1]: Tryptophan fluorescent binding assay. The following applies: tryptophan fluorescence; 50 µM peptide, lipid titrated 0-5000 µM; phosphate buffered saline 1X, pH 7.4; values as lipid per peptide. An outline of the steps:
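Tryptophan fluorescence was used to follow binding of peptide, fixed at 50 µM, to large unilamellar vesicles of POPC:POPG (3:1 ratio) titrated into phosphate buffered saline (1X, pH 7.4). After 1 h incubation, spectra were taken on a BioTek Cytation 5 reader with excitation at 280 nm and emission at 300 to 450 nm (9 nm slits), averaging three scans.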

The nature of assay [2]: ANTS/DPX liposome leakage assay. Conditions: 0.5 mM vesicles, peptide 0-20 µM, 3 h incubation, lipid per peptide; for Peptide Concentration-induced 50 % ANTS/DPX leakage at pH 4.8 (L/P), 3POPC/1POPG Vesicle / Peptide Concentration-induced 50 % ANTS/DPX leakage at pH 4.8 (L/P), POPC Vesicle: HCl-adjusted PBS 1X pH 4.8; for Peptide Concentration-induced 50 % ANTS/DPX leakage at pH 7.4 (L/P), 3POPC/1POPG Vesicle / Peptide Concentration-induced 50 % ANTS/DPX leakage at pH 7.4 (L/P), POPC Vesicle: PBS 1X pH 7.4, high ratio = more potent. An outline of the steps: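 Extruded 0.1 µm POPC or POPC/POPG (3:1) vesicles were loaded with 5 mM ANTS and 12.5 mM DPX, gel-filtered, then used at 0.5 mM lipid with titrated peptide at pH 7.4 or pH 4.8 (acidified PBS). Leakage was read at ex 350/em 510 nm after 3 h against 10% Triton maximum, expressed as lipid/peptide ratio for 50% leakage.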

Peptide text beside a SMILES is read from it.

The term IC50 denotes the concentration needed to halve the response being measured. Regarding `CC(C)C[C@H](NC(=O)CN)C(=O)N[C@@H](CC(C)C)C(=O)N[C@@H](Cc1c[nH]cn1)C(=O)N[C@@H](CC(C)C)C(=O)N[C@@H](CC(C)C)C(=O)N[C@@H](CCCCN)C(=O)N[C@@H](CC(C)C)C(=O)N[C@@H](CC(C)C)C(=O)N[C@@H](CC(C)C)C(=O)N[C@@H](CCC(=O)O)C(=O)N[C@@H](C)C(=O)N[C@@H](C)C(=O)NCC(=O)N[C@@H](Cc1c[nH]c2ccccc12)C(N)=O` [HKE] (H-GLLHLLKLLLEAAGW-NH2), the IC50 in the assay with HMLER turned out to be 2.7 ± 0.28 µM. Moreover, inhibition in the assay with HMLER‐shEcad was half-maximal at 1900 ± 420 nM (IC50). For the same compound, the IC50 in the assay on MCF‐10A amounted to 7.6 ± 0.42 µM. Besides, the IC50 with U2OS amounted to 16 ± 0.78 µM. In the assay on HEK293T, the midpoint of inhibition, the IC50, lay at 5.15 ± 0.64 µM. For the same compound, in assay [1], the “Lipid Concentration-induced 50% Peptide Binding (L/P), 3POPC/1POPG Vesicle” value was 0.25 L/P and the “Lipid Concentration-induced 50% Peptide Binding (L/P), POPC Vesicle” value is reported as 0.75 L/P. Further, in assay [2], the “Peptide Concentration-induced 50 % ANTS/DPX leakage at pH 4.8 (L/P), 3POPC/1POPG Vesicle” value amounted to 94 L/P; the “Peptide Concentration-induced 50 % ANTS/DPX leakage at pH 4.8 (L/P), POPC Vesicle” value was determined as 173 L/P; the “Peptide Concentration-induced 50 % ANTS/DPX leakage at pH 7.4 (L/P), 3POPC/1POPG Vesicle” value came out at 365 L/P; the “Peptide Concentration-induced 50 % ANTS/DPX leakage at pH 7.4 (L/P), POPC Vesicle” value is 692 L/P.

As to `CC(C)C[C@H](NC(=O)CN)C(=O)N[C@@H](CC(C)C)C(=O)N[C@@H](CCC(=O)O)C(=O)N[C@@H](CC(C)C)C(=O)N[C@@H](CC(C)C)C(=O)N[C@@H](CCCCN)C(=O)N[C@@H](CC(C)C)C(=O)N[C@@H](CC(C)C)C(=O)N[C@@H](CC(C)C)C(=O)N[C@@H](Cc1c[nH]cn1)C(=O)N[C@@H](C)C(=O)N[C@@H](C)C(=O)NCC(=O)N[C@@H](Cc1c[nH]c2ccccc12)C(N)=O` [EKH] (H-GLLELLKLLLHAAGW-NH2), the IC50 in the assay on HMLER was 2.75 ± 0.07 µM. For the same compound, the midpoint of inhibition with HMLER‐shEcad, the IC50, lay at 2180 ± 310 nM. For the same compound, in the assay on MCF‐10A, the midpoint of inhibition, the IC50, lay at 7.9 ± 0.42 µM. This compound also came in with an IC50 with U2OS of 23.8 ± 0.81 µM. In the assay on HEK293T, this compound displayed an IC50 of 6.65 ± 1.34 µM. Also, in assay [1], the “Lipid Concentration-induced 50% Peptide Binding (L/P), 3POPC/1POPG Vesicle” value was determined as 0.19 L/P and the “Lipid Concentration-induced 50% Peptide Binding (L/P), POPC Vesicle” value was 0.75 L/P. Further, in assay [2], the “Peptide Concentration-induced 50 % ANTS/DPX leakage at pH 4.8 (L/P), 3POPC/1POPG Vesicle” value came to 88 L/P; the “Peptide Concentration-induced 50 % ANTS/DPX leakage at pH 4.8 (L/P), POPC Vesicle” value is 55 L/P; the “Peptide Concentration-induced 50 % ANTS/DPX leakage at pH 7.4 (L/P), 3POPC/1POPG Vesicle” value amounted to 365 L/P; the “Peptide Concentration-induced 50 % ANTS/DPX leakage at pH 7.4 (L/P), POPC Vesicle” value is reported as 608 L/P.

In the assay with HMLER, `CC(C)C[C@H](NC(=O)CN)C(=O)N[C@@H](CC(C)C)C(=O)N[C@@H](Cc1c[nH]cn1)C(=O)N[C@@H](CC(C)C)C(=O)N[C@@H](CC(C)C)C(=O)N[C@@H](CCCCN)C(=O)N[C@@H](CC(C)C)C(=O)N[C@@H](CC(C)C)C(=O)N[C@@H](CC(C)C)C(=O)N[C@@H](CCCCN)C(=O)N[C@@H](C)C(=O)N[C@@H](C)C(=O)NCC(=O)N[C@@H](Cc1c[nH]c2ccccc12)C(N)=O` [HKK] (H-GLLHLLKLLLKAAGW-NH2) yielded an IC50 of 3.4 ± 0.71 µM. In addition, in the assay on HMLER‐shEcad, the IC50 was 2600 ± 420 nM. For the same compound, in the assay with MCF‐10A, 2.18 ± 0.39 µM corresponded to half-maximal inhibition (IC50). In addition, in the assay on U2OS, inhibition was half-maximal at 12.23 ± 0.11 µM (IC50). This compound showed an IC50 in the assay on HEK293T of 9.5 ± 0.99 µM. Also, in assay [1], the “Lipid Concentration-induced 50% Peptide Binding (L/P), 3POPC/1POPG Vesicle” value is listed as 0.14 L/P and the “Lipid Concentration-induced 50% Peptide Binding (L/P), POPC Vesicle” value is listed as 0.18 L/P. In assay [2], the “Peptide Concentration-induced 50 % ANTS/DPX leakage at pH 4.8 (L/P), 3POPC/1POPG Vesicle” value came out at 106 L/P; the “Peptide Concentration-induced 50 % ANTS/DPX leakage at pH 4.8 (L/P), POPC Vesicle” value is 106 L/P; the “Peptide Concentration-induced 50 % ANTS/DPX leakage at pH 7.4 (L/P), 3POPC/1POPG Vesicle” value is 90 L/P; the “Peptide Concentration-induced 50 % ANTS/DPX leakage at pH 7.4 (L/P), POPC Vesicle” value is given as 657 L/P.

In the assay on HMLER, `CC(C)C[C@H](NC(=O)CN)C(=O)N[C@@H](CC(C)C)C(=O)N[C@@H](CC(=O)O)C(=O)N[C@@H](CC(C)C)C(=O)N[C@@H](CC(C)C)C(=O)N[C@@H](CCC(=O)O)C(=O)N[C@@H](CC(C)C)C(=O)N[C@@H](CC(C)C)C(=O)N[C@@H](CC(C)C)C(=O)N[C@@H](CCC(=O)O)C(=O)N[C@@H](C)C(=O)N[C@@H](C)C(=O)NCC(=O)N[C@@H](Cc1c[nH]c2ccccc12)C(N)=O` [DEE] (H-GLLDLLELLLEAAGW-NH2) yielded a half-maximal inhibitory concentration (IC50) of 5.55 ± 0.35 µM. The IC50 in the assay with HMLER‐shEcad worked out at 6050 ± 2760 nM. In the assay with MCF‐10A, this compound returned a half-inhibitory concentration (IC50) of 8.4 ± 1.56 µM. In addition, half-maximal inhibition in the assay with U2OS (IC50) was put at 61 ± 1.41 µM. Moreover, in the assay on HEK293T, the IC50 stood at 9.91 ± 0.44 µM. Besides, in assay [1], the “Lipid Concentration-induced 50% Peptide Binding (L/P), 3POPC/1POPG Vesicle” value amounted to 0.38 L/P and the “Lipid Concentration-induced 50% Peptide Binding (L/P), POPC Vesicle” value was 0.63 L/P. Besides, in assay [2], the “Peptide Concentration-induced 50 % ANTS/DPX leakage at pH 4.8 (L/P), 3POPC/1POPG Vesicle” value was 164 L/P; the “Peptide Concentration-induced 50 % ANTS/DPX leakage at pH 4.8 (L/P), POPC Vesicle” value was 110 L/P; the “Peptide Concentration-induced 50 % ANTS/DPX leakage at pH 7.4 (L/P), 3POPC/1POPG Vesicle” value is recorded as 597 L/P; the “Peptide Concentration-induced 50 % ANTS/DPX leakage at pH 7.4 (L/P), POPC Vesicle” value worked out at 644 L/P.

Compound `CC(C)C[C@H](NC(=O)CN)C(=O)N[C@@H](CC(C)C)C(=O)N[C@@H](CCCCN)C(=O)N[C@@H](CC(C)C)C(=O)N[C@@H](CC(C)C)C(=O)N[C@@H](Cc1c[nH]cn1)C(=O)N[C@@H](CC(C)C)C(=O)N[C@@H](CC(C)C)C(=O)N[C@@H](CC(C)C)C(=O)N[C@@H](CCC(=O)O)C(=O)N[C@@H](C)C(=O)N[C@@H](C)C(=O)NCC(=O)N[C@@H](Cc1c[nH]c2ccccc12)C(N)=O` [KHE] (H-GLLKLLHLLLEAAGW-NH2) had an IC50 in the assay with HMLER of 3.7 ± 0.14 µM. Also, the IC50 in the assay on HMLER‐shEcad came to 2920 ± 170 nM. Moreover, 20.9 ± 5.87 µM corresponded to half-maximal inhibition in the assay with MCF‐10A (IC50). This compound also yielded an IC50 with U2OS of 53 ± 2.83 µM. This compound registered an IC50 with HEK293T of 26 ± 2.83 µM. In assay [1], the “Lipid Concentration-induced 50% Peptide Binding (L/P), 3POPC/1POPG Vesicle” value is 0.71 L/P and the “Lipid Concentration-induced 50% Peptide Binding (L/P), POPC Vesicle” value turned out to be 0.88 L/P. Besides, in assay [2], the “Peptide Concentration-induced 50 % ANTS/DPX leakage at pH 4.8 (L/P), 3POPC/1POPG Vesicle” value was 156 L/P; the “Peptide Concentration-induced 50 % ANTS/DPX leakage at pH 4.8 (L/P), POPC Vesicle” value stood at 183 L/P; the “Peptide Concentration-induced 50 % ANTS/DPX leakage at pH 7.4 (L/P), 3POPC/1POPG Vesicle” value was determined as 188 L/P; the “Peptide Concentration-induced 50 % ANTS/DPX leakage at pH 7.4 (L/P), POPC Vesicle” value is recorded as 981 L/P.

As for `CC(C)C[C@H](NC(=O)CN)C(=O)N[C@@H](CC(C)C)C(=O)N[C@@H](CC(=O)O)C(=O)N[C@@H](CC(C)C)C(=O)N[C@@H](CC(C)C)C(=O)N[C@@H](CCCCN)C(=O)N[C@@H](CC(C)C)C(=O)N[C@@H](CC(C)C)C(=O)N[C@@H](CC(C)C)C(=O)N[C@@H](Cc1c[nH]cn1)C(=O)N[C@@H](C)C(=O)N[C@@H](C)C(=O)NCC(=O)N[C@@H](Cc1c[nH]c2ccccc12)C(N)=O` [DKH] (H-GLLDLLKLLLHAAGW-NH2), the IC50 in the assay with HMLER stood at 3.45 ± 0.07 µM; with HMLER‐shEcad it was 2800 ± 280 nM; in the assay on MCF‐10A it was 7.05 ± 0.21 µM; in the assay on U2OS, 21.1 ± 3.01 µM; in the assay on HEK293T it was 6.15 ± 1.34 µM. Moreover, the “Lipid Concentration-induced 50% Peptide Binding (L/P), 3POPC/1POPG Vesicle” value in assay [1] is listed as 0.46 L/P. Further, the “Lipid Concentration-induced 50% Peptide Binding (L/P), POPC Vesicle” value in assay [1] is recorded as 10.00 L/P. Moreover, in assay [2], the “Peptide Concentration-induced 50 % ANTS/DPX leakage at pH 4.8 (L/P), 3POPC/1POPG Vesicle” value was determined as 58 L/P. Further, the “Peptide Concentration-induced 50 % ANTS/DPX leakage at pH 4.8 (L/P), POPC Vesicle” value in assay [2] was determined as 41 L/P. Also, the “Peptide Concentration-induced 50 % ANTS/DPX leakage at pH 7.4 (L/P), 3POPC/1POPG Vesicle” value in assay [2] is recorded as 274 L/P. Further, the “Peptide Concentration-induced 50 % ANTS/DPX leakage at pH 7.4 (L/P), POPC Vesicle” value in assay [2] came to 614 L/P.
